{
  "source": "patent US9486438B2",
  "about": "“Combination dosage forms and therapies for supporting bone health” (Primus Pharmaceuticals Inc., priority 2008, dated 2016)",
  "key": {"[1]": {"settings": "Ensrud et al., J Bone Miner Res. 2004; cited from earlier work"}, "post-menopausal women": {"tested_on": "post-menopausal women", "settings": "administered for one year to post-menopausal women; Morabito et al. 2002; cited from earlier work"}, "ovariectomized rats [2]": {"tested_on": "ovariectomized rats", "test": "Genistein dose-ranging preclinical study: bone mineral density of the right femur by dual-energy X-ray absorptiometry", "format": "in vivo, Sprague-Dawley rats", "description": "(§1) This study was carried out to evaluate the effects of different human dose equivalents of genistein (aglycone) alone, or in combination with supplemental calcium carbonate and vitamin D3, on bone density, markers, and histology in ovariectomized rats. Forty-eight three month old ovariectomized (OVX) female Sprague-Dawley rats were purchased from Charles River Laboratories. Animals were maintained in plastic cages under standard environmental conditions with water and standard rat chow available ad libitum at the Animal Facility of the Department of Clinical and Experimental Medicine and Pharmacology of the University of Messina, Messina, Italy. After 1 week of acclimation, animals were randomly assigned to 12 different treatment groups that lasted for 6 weeks as summarized in Table 1 below:\n(§2) Genistein doses were converted into human equivalents by using the following formula: (human dose in mg/m^2)=(kin)×(dose in mg/kg) where human m^2 for a person of 60 kg (considered as a medium weight for our cohort of post-menopausal women) is 1.62 and km is the conversion factor (for a rat of 250 gr is 7.0) {Freireich, 1966 4611/id. Genistein was diluted in a 1:1 solution of 0.9% NaCl and DMSO and administered by intraperitoneal injection. Animals received 50% supplementation of their normal daily intake of calcium and vitamin D3 (50.4 IU/kg/day) by oral gavage, which equated to 366.52 mg/kg/day of calcium and 50.4 IU/kg/day of vitamin D3.\n(§3) Bone mineral density of the right femur was measured using dual-energy X-ray absorptiometry. The coefficient of variation for femur BMD was 1.16%. Animals were maintained under controlled conditions for 6 weeks, at the end of the experiments were sacrificed under general anaesthesia (with chloral hydrate 400 mg/kg/ip) after blood collection by cardiac puncture. Blood was centrifuged and serum stored immediately at −20° C. for analysis. Serum was used to quantify markers of bone resorption [soluble receptor activator of nuclear factor kappaB ligand (sRANKL) and C-terminal telopeptide (CTX)] and formation [bone-specific alkaline phosphatase and osteoprotegerin (OPG)]."}, "[3]": {"tested_on": "ovariectomized (OVX) female Sprague-Dawley rats", "test": "Genistein bone architecture study: femoral head histology", "format": "in vivo", "settings": "human equivalent dose of 54 mg/day (4.76 mg/kg/day i.p.), photomicrographs, preliminary evidence, to approximately that of non-ovariectomized animal", "excerpt": "Three month old ovariectomized (OVX) female Sprague-Dawley rats were purchased from Charles River Laboratories. Animals were maintained in plastic cages under standard environmental conditions with water and standard rat chow available ad libitum at the Animal Facility of the Department of Clinical and Experimental Medicine and Pharmacology of the University of Messina, Messina, Italy.\nDose Calculation—Genistein doses were converted into animal equivalents by using the following formula: (human dose in mg/m^2)=(km)×(dose in mg/kg) where human m^2 for a person of 60 kg (considered as a medium weight for our cohort of post-menopausal women) is 1.62 and km is the conversion factor (for a rat of 250 gr is 7.0) {Freireich, 1966 4611/id}. Therefore, animals given the human equivalent of 54 mg/day were administered 4.76 mg/kg/day. Genistein was diluted in a 1:1 solution of 0.9% NaCl and DMSO and administered by intraperitoneal injection in a volume of […].\nHistology—Rat femora decalcified in 4% EDTA for approximately 1 week and then processed for routine paraffin embedding following standard procedures. Sections were cut at the femoral head just proximal to the coxofemoral joint and stained with hematoxylin and eosin."}, "ovariectomized rats [4]": {"tested_on": "ovariectomized rats", "test": "Genistein dose-ranging preclinical study: serum markers of bone resorption and formation", "format": "in vivo, Sprague-Dawley rats", "description": "as §1, §2, §3"}, "[5]": {"settings": "vitamin D3 added to estrogen therapy; Tuppurainen et al. 1998; cited from earlier work"}, "[6]": {"tested_on": "younger postmenopausal women", "settings": "10 000 U vitamin D3/wk added to calcium 1000 mg/d, postmenopausal women (age: 56 y); Cooper et al. 2003; cited from earlier work"}, "[7]": {"settings": "serum, OVX rats, genistein 0-1000 mg/day human dose equivalents i.p., 6 weeks, p<0.001, FIG. 1"}},
  "data": [
    {"smiles": "NCCCC(O)(P(=O)(O)O)P(=O)(O)O", "note": "[alendronate]", "values": [
      {"measurement": "reducing fractures beyond 5 years of treatment", "setting": "[1]", "result": "no benefit"}
    ]},
    {"smiles": "O=c1c(-c2ccc(O)cc2)coc2cc(O)cc(O)c12", "note": "[genistein, 4′,5,7-trihydroxyisoflavone]", "values": [
      {"measurement": "bone mineral density", "setting": "post-menopausal women", "result": "improve"},
      {"measurement": "several biochemical markers of bone health", "setting": "post-menopausal women", "result": "improve"},
      {"measurement": "BMD when supplemented with vitamin D3 and calcium", "setting": "ovariectomized rats [2]; equivalent of 54 mg genistein per day, only group showing it", "result": "statistically significant preservation"},
      {"measurement": "bone mineral density", "setting": "ovariectomized rats [2]; femur, OVX rats, genistein i.p., 6 weeks, p<0.001, FIG. 2", "result": "increases"},
      {"measurement": "BMD when supplemented with vitamin D3 or calcium", "setting": "ovariectomized rats [2]; genistein 27, 200, 500 and 1,000 mg human equivalent doses, even worsened in some instances", "result": "no improvement"},
      {"measurement": "BMD over 6 weeks in calcium and vitamin D3-replete rats", "setting": "ovariectomized rats [2]; genistein at 54 mg/day and above (human dose equivalents)", "result": "significant increases"},
      {"measurement": "trabecular architecture (trabecular rod number and thickness) of femoral head", "setting": "[3]", "result": "restores trabecular architecture"},
      {"measurement": "RANKL/OPG ratio", "setting": "ovariectomized rats [4]; OVX rats, genistein i.p., 6 weeks, p<0.001, FIG. 3", "result": "decreased"},
      {"measurement": "dose at which the genistein effect reached a plateau", "setting": "ovariectomized rats [4]; bone markers, BMD and RANKL/OPG ratio, no further significant improvement beyond this dose by post-hoc testing", "result": 54, "unit": "mg human dose equivalent"},
      {"measurement": "Bone specific alkaline phosphatase (marker of bone formation)", "setting": "ovariectomized rats [4]; [7]", "result": "dose-dependently increased"},
      {"measurement": "CTX (marker of bone resorption)", "setting": "ovariectomized rats [4]; [7]", "result": "decreased"},
      {"measurement": "osteoprotegerin (marker of bone formation)", "setting": "ovariectomized rats [4]; [7]", "result": "dose-dependently increased"},
      {"measurement": "sRANKL (marker of bone resorption)", "setting": "ovariectomized rats [4]; [7]", "result": "decreased"}
    ]},
    {"smiles": "C=C1CC[C@H](O)C/C1=C/C=C1\\CCC[C@]2(C)[C@@H]([C@H](C)CCCC(C)C)CC[C@@H]12", "note": "[vitamin D3]", "values": [
      {"measurement": "lumbar or femoral bone mineral density changes", "setting": "[5]", "result": "no statistically significant improvement"},
      {"measurement": "bone mineral density beyond calcium supplementation alone", "setting": "[6]", "result": "did not confer benefits"}
    ]}
  ]
}
